{
  "source": "patent US7202280B2",
  "about": "“Methods for the treatment and prevention of pancreatitis and for induction of liver regeneration” (priority 2002, dated 2007)",
  "system": "syngenic and metallothionein-SSAT mice",
  "assay": "Hepatic, pancreatic and renal polyamine concentration in syngenic and metallothionein-SSAT mice after analogue",
  "type": "in vivo, mouse",
  "settings": "24 h",
  "experimental": "α-methylspermidine, Bis-α-methylspermine and α-methylspermine were administered in saline. […] The data are expressed as means ±S.D. For statistical analysis, the two-tailed Student's t test was used.",
  "data": [
    {"smiles": "CC(N)CCNCCCCN", "note": "(stereo not drawn) [α-methylspermidine, 1-methylspermidine]", "values": [
      {"measurement": "hepatic N^1-Acetyl-spermidine", "setting": "Sg mice, 50 mg/kg", "result": "21.45 pmoles/mg tissue wet weight"},
      {"measurement": "hepatic Spermidine", "setting": "Sg mice, 50 mg/kg", "result": "1018.24 pmoles/mg tissue wet weight"},
      {"measurement": "hepatic Spermine", "setting": "Sg mice, 50 mg/kg", "result": "864.34 ± 90.79 ^++ pmoles/mg tissue wet weight"},
      {"measurement": "hepatic α-Methyl-spermidine", "setting": "Sg mice, 50 mg/kg", "result": "394.01 pmoles/mg tissue wet weight"},
      {"measurement": "pancreatic Putrescine", "setting": "Sg mice, 50 mg/kg", "result": "2.82 pmoles/mg tissue wet weight"},
      {"measurement": "pancreatic Spermidine", "setting": "Sg mice, 50 mg/kg", "result": "6597.75 ± 1034.98 ^+ pmoles/mg tissue wet weight"},
      {"measurement": "pancreatic Spermine", "setting": "Sg mice, 50 mg/kg", "result": "911.15 pmoles/mg tissue wet weight"},
      {"measurement": "renal N^1-Acetylspermidine", "setting": "Sg mice, 50 mg/kg", "result": "36.67 pmoles/mg tissue wet weight"},
      {"measurement": "renal Putrescine", "setting": "Sg mice, 50 mg/kg", "result": "45.91 pmoles/mg tissue wet weight"},
      {"measurement": "renal Spermidine", "setting": "Sg mice, 50 mg/kg", "result": "315.36 ± 46.18 ^+ pmoles/mg tissue wet weight"},
      {"measurement": "renal Spermine", "setting": "Sg mice, 50 mg/kg", "result": "856.32 ± 68.27 pmoles/mg tissue wet weight"},
      {"measurement": "renal α-Methylspermidine", "setting": "Sg mice, 50 mg/kg", "result": "122.64 pmoles/mg tissue wet weight"},
      {"measurement": "hepatic N^1-Acetyl-spermidine", "setting": "Sg mice, 100 mg/kg", "result": "12.90 pmoles/mg tissue wet weight"},
      {"measurement": "hepatic Putrescine", "setting": "Sg mice, 100 mg/kg", "result": "15.36 pmoles/mg tissue wet weight"},
      {"measurement": "hepatic Spermidine", "setting": "Sg mice, 100 mg/kg", "result": "729.82 pmoles/mg tissue wet weight"},
      {"measurement": "hepatic Spermine", "setting": "Sg mice, 100 mg/kg", "result": "892.64 ± 79.24 ^++ pmoles/mg tissue wet weight"},
      {"measurement": "hepatic α-Methyl-spermidine", "setting": "Sg mice, 100 mg/kg", "result": "461.44 pmoles/mg tissue wet weight"},
      {"measurement": "pancreatic N^1-Acetyl-spermidine", "setting": "Sg mice, 100 mg/kg", "result": "66.33 pmoles/mg tissue wet weight"},
      {"measurement": "pancreatic Spermidine", "setting": "Sg mice, 100 mg/kg", "result": "6089.81 ± 1039.94 ^++ pmoles/mg tissue wet weight"},
      {"measurement": "pancreatic Spermine", "setting": "Sg mice, 100 mg/kg", "result": "815.33 pmoles/mg tissue wet weight"},
      {"measurement": "renal N^1-Acetylspermidine", "setting": "Sg mice, 100 mg/kg", "result": "38.89 pmoles/mg tissue wet weight"},
      {"measurement": "renal Putrescine", "setting": "Sg mice, 100 mg/kg", "result": "68.97 pmoles/mg tissue wet weight"},
      {"measurement": "renal Spermidine", "setting": "Sg mice, 100 mg/kg", "result": "231.78 ± 25.15 pmoles/mg tissue wet weight"},
      {"measurement": "renal Spermine", "setting": "Sg mice, 100 mg/kg", "result": "686.21 ± 75.94 ^+ pmoles/mg tissue wet weight"},
      {"measurement": "renal α-Methylspermidine", "setting": "Sg mice, 100 mg/kg", "result": "146.37 pmoles/mg tissue wet weight"},
      {"measurement": "hepatic N^1-Acetyl-spermidine", "setting": "Sg mice, 150 mg/kg", "result": "23.35 pmoles/mg tissue wet weight"},
      {"measurement": "hepatic Spermidine", "setting": "Sg mice, 150 mg/kg", "result": "723.14 pmoles/mg tissue wet weight"},
      {"measurement": "hepatic Spermine", "setting": "Sg mice, 150 mg/kg", "result": "739.53 ± 170.40 ^+ pmoles/mg tissue wet weight"},
      {"measurement": "hepatic α-Methyl-spermidine", "setting": "Sg mice, 150 mg/kg", "result": "504.41 pmoles/mg tissue wet weight"},
      {"measurement": "pancreatic Putrescine", "setting": "Sg mice, 150 mg/kg", "result": "1.66 pmoles/mg tissue wet weight"},
      {"measurement": "pancreatic Spermidine", "setting": "Sg mice, 150 mg/kg", "result": "6345.88 ± 1026.88 ^++ pmoles/mg tissue wet weight"},
      {"measurement": "pancreatic Spermine", "setting": "Sg mice, 150 mg/kg", "result": "833.73 pmoles/mg tissue wet weight"},
      {"measurement": "renal N^1-Acetylspermidine", "setting": "Sg mice, 150 mg/kg", "result": "24.61 pmoles/mg tissue wet weight"},
      {"measurement": "renal Putrescine", "setting": "Sg mice, 150 mg/kg", "result": "65.28 pmoles/mg tissue wet weight"},
      {"measurement": "renal Spermidine", "setting": "Sg mice, 150 mg/kg", "result": "240.59 ± 28.71 pmoles/mg tissue wet weight"},
      {"measurement": "renal Spermine", "setting": "Sg mice, 150 mg/kg", "result": "635.17 ± 42.35 pmoles/mg tissue wet weight"},
      {"measurement": "renal α-Methylspermidine", "setting": "Sg mice, 150 mg/kg", "result": "175.49 pmoles/mg tissue wet weight"},
      {"measurement": "hepatic N^1-Acetyl-spermidine", "setting": "Sg mice, 250 mg/kg", "result": "18.97 pmoles/mg tissue wet weight"},
      {"measurement": "hepatic Putrescine", "setting": "Sg mice, 250 mg/kg", "result": "21.87 pmoles/mg tissue wet weight"},
      {"measurement": "hepatic Spermidine", "setting": "Sg mice, 250 mg/kg", "result": "593.49 pmoles/mg tissue wet weight"},
      {"measurement": "hepatic Spermine", "setting": "Sg mice, 250 mg/kg", "result": "854.77 ± 108.73 ^++ pmoles/mg tissue wet weight"},
      {"measurement": "hepatic α-Methyl-spermidine", "setting": "Sg mice, 250 mg/kg", "result": "763.57 pmoles/mg tissue wet weight"},
      {"measurement": "pancreatic Putrescine", "setting": "Sg mice, 250 mg/kg", "result": "158.82 pmoles/mg tissue wet weight"},
      {"measurement": "pancreatic Spermidine", "setting": "Sg mice, 250 mg/kg", "result": "4773.64 ± 838.69 ^++ pmoles/mg tissue wet weight"},
      {"measurement": "pancreatic Spermine", "setting": "Sg mice, 250 mg/kg", "result": "762.743 pmoles/mg tissue wet weight"},
      {"measurement": "pancreatic α-Methyl-spermidine", "setting": "Sg mice, 250 mg/kg", "result": "1363.02 pmoles/mg tissue wet weight"},
      {"measurement": "renal N^1-Acetylspermidine", "setting": "Sg mice, 250 mg/kg", "result": "31.10 pmoles/mg tissue wet weight"},
      {"measurement": "renal Putrescine", "setting": "Sg mice, 250 mg/kg", "result": "41.84 pmoles/mg tissue wet weight"},
      {"measurement": "renal Spermidine", "setting": "Sg mice, 250 mg/kg", "result": "225.57 ± 29.21 ^+ pmoles/mg tissue wet weight"},
      {"measurement": "renal Spermine", "setting": "Sg mice, 250 mg/kg", "result": "518.89 ± 36.68 pmoles/mg tissue wet weight"},
      {"measurement": "renal α-Methylspermidine", "setting": "Sg mice, 250 mg/kg", "result": "288.30 pmoles/mg tissue wet weight"},
      {"measurement": "hepatic N^1-Acetyl-spermidine", "setting": "Sg mice, 375 mg/kg", "result": "31.64 pmoles/mg tissue wet weight"},
      {"measurement": "hepatic Putrescine", "setting": "Sg mice, 375 mg/kg", "result": "29.37 pmoles/mg tissue wet weight"},
      {"measurement": "hepatic Spermidine", "setting": "Sg mice, 375 mg/kg", "result": "370.29 pmoles/mg tissue wet weight"},
      {"measurement": "hepatic Spermine", "setting": "Sg mice, 375 mg/kg", "result": "644.88 ± 183.36 ^+ pmoles/mg tissue wet weight"},
      {"measurement": "hepatic α-Methyl-spermidine", "setting": "Sg mice, 375 mg/kg", "result": "1095.59 pmoles/mg tissue wet weight"},
      {"measurement": "pancreatic N^1-Acetyl-spermidine", "setting": "Sg mice, 375 mg/kg", "result": "14.02 pmoles/mg tissue wet weight"},
      {"measurement": "pancreatic Putrescine", "setting": "Sg mice, 375 mg/kg", "result": "726.66 pmoles/mg tissue wet weight"},
      {"measurement": "pancreatic Spermidine", "setting": "Sg mice, 375 mg/kg", "result": "4073.3 ± 670.46^++ pmoles/mg tissue wet weight"},
      {"measurement": "pancreatic Spermine", "setting": "Sg mice, 375 mg/kg", "result": "740.93 pmoles/mg tissue wet weight"},
      {"measurement": "pancreatic α-Methyl-spermidine", "setting": "Sg mice, 375 mg/kg", "result": "1319.14 pmoles/mg tissue wet weight"},
      {"measurement": "renal N^1-Acetylspermidine", "setting": "Sg mice, 375 mg/kg", "result": "27.40 pmoles/mg tissue wet weight"},
      {"measurement": "renal Putrescine", "setting": "Sg mice, 375 mg/kg", "result": "58.59 pmoles/mg tissue wet weight"},
      {"measurement": "renal Spermidine", "setting": "Sg mice, 375 mg/kg", "result": "189.46 ± 0.98 pmoles/mg tissue wet weight"},
      {"measurement": "renal Spermine", "setting": "Sg mice, 375 mg/kg", "result": "454.49 ± 64.44 ^+ pmoles/mg tissue wet weight"},
      {"measurement": "renal α-Methylspermidine", "setting": "Sg mice, 375 mg/kg", "result": "477.31 pmoles/mg tissue wet weight"},
      {"measurement": "hepatic N^1-Acetyl-spermidine", "setting": "Sg mice, 500 mg/kg", "result": "133.00 pmoles/mg tissue wet weight"},
      {"measurement": "hepatic Putrescine", "setting": "Sg mice, 500 mg/kg", "result": "119.33 pmoles/mg tissue wet weight"},
      {"measurement": "hepatic Spermidine", "setting": "Sg mice, 500 mg/kg", "result": "273.13 pmoles/mg tissue wet weight"},
      {"measurement": "hepatic Spermine", "setting": "Sg mice, 500 mg/kg", "result": "666.13 ± 188.21 pmoles/mg tissue wet weight"},
      {"measurement": "hepatic α-Methyl-spermidine", "setting": "Sg mice, 500 mg/kg", "result": "1801.46 pmoles/mg tissue wet weight"},
      {"measurement": "pancreatic N^1-Acetyl-spermidine", "setting": "Sg mice, 500 mg/kg", "result": "10.62 pmoles/mg tissue wet weight"},
      {"measurement": "pancreatic Putrescine", "setting": "Sg mice, 500 mg/kg", "result": "812.54 pmoles/mg tissue wet weight"},
      {"measurement": "pancreatic Spermidine", "setting": "Sg mice, 500 mg/kg", "result": "3669.36 ± 1235.66 pmoles/mg tissue wet weight"},
      {"measurement": "pancreatic Spermine", "setting": "Sg mice, 500 mg/kg", "result": "652.17 pmoles/mg tissue wet weight"},
      {"measurement": "pancreatic α-Methyl-spermidine", "setting": "Sg mice, 500 mg/kg", "result": "1273.3 pmoles/mg tissue wet weight"},
      {"measurement": "renal N^1-Acetylspermidine", "setting": "Sg mice, 500 mg/kg", "result": "46.34 pmoles/mg tissue wet weight"},
      {"measurement": "renal Putrescine", "setting": "Sg mice, 500 mg/kg", "result": "789.63 pmoles/mg tissue wet weight"},
      {"measurement": "renal Spermidine", "setting": "Sg mice, 500 mg/kg", "result": "181.32 ± 28.81 pmoles/mg tissue wet weight"},
      {"measurement": "renal Spermine", "setting": "Sg mice, 500 mg/kg", "result": "458.07 ± 107.68 pmoles/mg tissue wet weight"},
      {"measurement": "renal α-Methylspermidine", "setting": "Sg mice, 500 mg/kg", "result": "1078.16 pmoles/mg tissue wet weight"},
      {"measurement": "hepatic N^1-Acetyl-spermidine", "setting": "Tg mice, 50 mg/kg", "result": "245.16 pmoles/mg tissue wet weight"},
      {"measurement": "hepatic Putrescine", "setting": "Tg mice, 50 mg/kg", "result": "1055.38 pmoles/mg tissue wet weight"},
      {"measurement": "hepatic Spermidine", "setting": "Tg mice, 50 mg/kg", "result": "329.57 pmoles/mg tissue wet weight"},
      {"measurement": "hepatic Spermine", "setting": "Tg mice, 50 mg/kg", "result": "103.26 ± 188.21 pmoles/mg tissue wet weight"},
      {"measurement": "hepatic α-Methyl-spermidine", "setting": "Tg mice, 50 mg/kg", "result": "582.62 pmoles/mg tissue wet weight"},
      {"measurement": "pancreatic N^1-Acetyl-spermidine", "setting": "Tg mice, 50 mg/kg", "result": "204.43 pmoles/mg tissue wet weight"},
      {"measurement": "pancreatic Putrescine", "setting": "Tg mice, 50 mg/kg", "result": "4968.25 pmoles/mg tissue wet weight"},
      {"measurement": "pancreatic Spermidine", "setting": "Tg mice, 50 mg/kg", "result": "1316.94 ± 248.44 pmoles/mg tissue wet weight"}
    ]}
  ]
}
